34 compounds from a melting point compilation (Tetko et al.; mined from patent text by program, amines drawn as free bases though some values may be those of a salt) can be followed below.

As for `COc1c(O)cnc(CNc2nc(C)nc(C)c2Cl)c1C`, the melting point lay within 220 to 224 °C.

As for `CN(C)c1cc(S(=O)(=O)c2ccccc2)cc(Br)n1`, the melting point fell in the range of 128 to 130 °C.

As for `Nc1cc(Oc2cc(N)cc(C(F)(F)F)c2)cc(C(F)(F)F)c1`, the melting point was in the range of 223 to 224 °C.

Take `Oc1ccc(NC2CCc3cc(O)ccc3C2)cc1` (centres undefined): the melting point is 193 to 195 °C.

Turning to `CCCCOc1cc2cc(C(=O)OC)c(C(=O)OC)c(-c3ccnc(Cl)c3)c2cc1OC`, the melting point lay in the range of 143 to 147 °C.

With `CCOC(=O)C1=C(C)N(C)C(C)=C(C(=O)OC)C1c1cc([N+](=O)[O-])ccc1Cl` (centres undefined), the melting point is 164 °C.

In the case of `CC1=C(C(=O)OC(C)C)C(c2cccc([N+](=O)[O-])c2)N(C(=O)NOCc2ccccc2)C(=O)N1` (centres undefined), the melting point fell in the range of 166 to 167 °C.

`CCOC(=O)c1cc(O)nn1-c1ncc(Cl)cc1Cl` displayed a melting point of 164 to 167 °C.

`N#Cc1cc(C=C2NC(=S)NC2=O)cc(O)c1O` gave a melting point of 210 to 213 °C.

As to `COC(=O)CCCOc1ccc(CNC(=O)C2Cc3ccccc3N2S(=O)(=O)c2ccc(-c3cccc(C(F)(F)F)c3)cc2)cc1` (centres undefined), the melting point turned out to be 50 °C.

Compound `CN(C)C=Cc1ncc([N+](=O)[O-])n1CCN1CCOCC1` gave a melting point of 105 to 106 °C.

`COc1cccc(CCCNC(=O)C2CC2)c1` registered a melting point of 65 to 67 °C.

Turning to `CCOC(=O)c1cn(-c2ccccc2)c2c([N+](=O)[O-])c(Cl)c(F)cc2c1=O`, the melting point fell in the range of 186 to 188 °C.

In turn, `CN(CCN1C(=O)c2ccccc2S1(=O)=O)C1COc2ccccc2O1` (centres undefined) displayed a melting point of 181 °C.

The compound `COc1ccc(C2CCN(C(=O)C(=O)NO)CC2)cc1CC1CCCC1` yielded a melting point of 138 °C.

As to `Fc1cc(F)c(-c2c(Cl)nc(-n3ccnc3)nc2Cl)c(F)c1`, the melting point is 72 to 74 °C.

For the compound `Cc1cccc(NC(=N)Nc2cccc(C)c2)c1`, the melting point lay in the range of 105 to 106 °C.

With `FC(F)(F)C(c1cc(-c2ccccc2)c(-c2ccccc2)[nH]1)C(F)(F)F`, the melting point is 112 to 114 °C.

The compound `Cc1noc(NS(=O)(=O)c2ccc(-c3ccccc3)s2)c1Br` yielded a melting point of 132 °C.

As for `CCOc1cc(C#N)ccc1C(=O)O`, the melting point was in the range of 170 to 172 °C.

`Cn1cc(C(=O)NCCC2CCN(S(=O)(=O)NC(=O)NC34CC5CC(CC(C5)C3)C4)CC2)c(=O)n(C)c1=O` came in with a melting point of 224 to 226 °C.

Compound `CC(=O)OC1CSC(Oc2cnc(Cl)c(F)c2)C(OC(C)=O)C1OC(C)=O` (centres undefined) yielded a melting point of 158 to 162 °C.

Compound `CC(C)[C@H](N=Cc1cccc(-c2ccccc2)c1O)C(=O)O` registered a melting point of 140 to 141 °C.

As for `O=C(CCl)Nc1ccc2c(c1NC(=O)C1CC1)C(=O)c1ccccc1C2=O`, the melting point was in the range of 191 to 192 °C.

`CN(C)CCCn1cc(C2=C(c3c[nH]c4ccccc34)C(=O)N(C)C2=O)c2ccccc21` registered a melting point of 86 to 90 °C.

Take `CCOC(=O)c1nc2scc(C)n2c1C`: the melting point lay in the range of 141 to 142 °C.

Compound `O=C(OCCc1ccc([N+](=O)[O-])cc1)C1Cc2c(ccc3[nH]ccc23)N1` (centres undefined) showed a melting point of 192 to 194 °C.

For the compound `COc1ccc(C=NO)cc1-c1cc2c(cc1C)C(C)(C)CCC2(C)C`, the melting point amounted to 152 °C.

As for `O=C(O)CCCCCCCCOc1ccccc1`, the melting point fell in the range of 66.5 to 67.5 °C.

Regarding `COc1cc2c(cc1O)CCCC(C(=O)N1CCN(C(=O)c3cc(OC)c(OC)c(OC)c3)CC1)=C2`, the melting point was in the range of 198 to 199 °C.

Regarding `CCN(CC)c1ccc2nc3c4ccccc4c(=Nc4nc5ccc(Cl)cc5s4)cc-3oc2c1`, the melting point is 229 to 231 °C.

The compound `C=CCN1C(=C)C(=O)N[C@@H](Cc2ccccc2)C1=O` came in with a melting point of 102 to 110 °C.

`COc1cccc(C2C(CN(C)C)CC(=O)N2c2ccccc2)c1` (centres undefined) yielded a melting point of 88 to 92 °C.

With `CCCc1c(OCCCS(=O)(=O)c2ccc(C(=O)CCC(=O)O)cc2F)ccc(C(C)=O)c1O`, the melting point fell in the range of 154 to 156 °C.
